Measured values reported in BindingDB's records for doi:10.1016/s0026-0495(96)90072-4 (Sandoz Pharma, 1996).
pKi: −log10 of the molar value. Values belong to the molecule of their own block, whether it stands above or below them. Positions of bridges follow the written chain, without caps; N, C: chain ends. Non-standard residues stand in square brackets, D forms with d. Residues, ends and D or L forms follow the SMILES beside them. *: point of attachment. d1Nal = N[C@H](Cc1cccc2ccccc12)C(=O)O; Asu = N[C@@H](CCCCCC(=O)O)C(=O)O; Nphe = O=C(O)CNCc1ccccc1; Ahp = NCCCCCCC(=O)O; Bn = c1ccc(C*)cc1

Tests used:
[1] = biological target: Somatostatin receptor type 2 (Homo sapiens, UniProt P30874)
Somatostatin receptor type 2, sequence (P30874 whole entry): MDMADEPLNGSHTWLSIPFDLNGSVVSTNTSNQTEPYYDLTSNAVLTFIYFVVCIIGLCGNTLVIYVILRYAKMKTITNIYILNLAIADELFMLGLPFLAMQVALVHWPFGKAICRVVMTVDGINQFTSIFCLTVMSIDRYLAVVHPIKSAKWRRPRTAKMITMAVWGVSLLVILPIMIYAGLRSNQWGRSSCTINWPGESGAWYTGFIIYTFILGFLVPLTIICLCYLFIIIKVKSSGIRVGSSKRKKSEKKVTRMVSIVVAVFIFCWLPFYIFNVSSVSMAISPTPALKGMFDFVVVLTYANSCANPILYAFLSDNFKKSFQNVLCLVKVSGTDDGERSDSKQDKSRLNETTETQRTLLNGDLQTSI

[2] = biological target: Somatostatin receptor type 5 (Homo sapiens, UniProt P35346)
Somatostatin receptor type 5, sequence (P35346 whole entry): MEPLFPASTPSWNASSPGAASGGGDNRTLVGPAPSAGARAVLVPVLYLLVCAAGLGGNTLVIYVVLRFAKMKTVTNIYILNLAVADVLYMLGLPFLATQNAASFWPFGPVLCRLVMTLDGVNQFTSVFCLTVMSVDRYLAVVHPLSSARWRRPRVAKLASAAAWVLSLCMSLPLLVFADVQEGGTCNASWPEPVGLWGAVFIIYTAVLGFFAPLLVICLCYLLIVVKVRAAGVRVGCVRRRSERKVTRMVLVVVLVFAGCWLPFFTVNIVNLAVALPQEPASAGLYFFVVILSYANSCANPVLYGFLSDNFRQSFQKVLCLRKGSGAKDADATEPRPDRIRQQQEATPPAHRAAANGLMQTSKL

[3] = biological target: Somatostatin receptor type 4 (Homo sapiens, UniProt P31391)
Somatostatin receptor type 4, sequence (P31391 whole entry): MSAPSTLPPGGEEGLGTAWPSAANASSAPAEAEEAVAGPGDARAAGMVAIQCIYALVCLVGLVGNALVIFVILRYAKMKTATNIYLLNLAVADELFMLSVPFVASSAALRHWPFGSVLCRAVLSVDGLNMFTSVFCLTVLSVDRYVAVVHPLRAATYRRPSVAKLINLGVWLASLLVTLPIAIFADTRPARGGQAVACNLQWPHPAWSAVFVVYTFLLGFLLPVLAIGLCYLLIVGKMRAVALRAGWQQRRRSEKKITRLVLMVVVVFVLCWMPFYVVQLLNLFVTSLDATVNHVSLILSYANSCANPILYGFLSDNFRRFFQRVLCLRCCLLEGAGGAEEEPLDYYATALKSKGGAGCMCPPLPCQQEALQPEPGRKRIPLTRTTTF

[4] = biological target: Somatostatin receptor type 3 (Homo sapiens, UniProt P32745)
Somatostatin receptor type 3, sequence (P32745 whole entry): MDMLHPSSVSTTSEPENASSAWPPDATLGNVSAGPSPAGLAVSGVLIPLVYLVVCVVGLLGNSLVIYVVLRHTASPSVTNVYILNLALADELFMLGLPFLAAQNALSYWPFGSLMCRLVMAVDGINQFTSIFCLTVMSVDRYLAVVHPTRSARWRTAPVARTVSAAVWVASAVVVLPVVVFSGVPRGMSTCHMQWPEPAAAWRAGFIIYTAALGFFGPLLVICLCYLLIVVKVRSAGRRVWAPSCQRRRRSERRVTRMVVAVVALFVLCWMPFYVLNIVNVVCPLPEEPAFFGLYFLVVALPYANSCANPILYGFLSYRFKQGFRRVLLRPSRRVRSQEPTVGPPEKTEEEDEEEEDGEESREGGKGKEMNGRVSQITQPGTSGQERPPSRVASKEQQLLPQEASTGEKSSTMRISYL

[5] = biological target: Somatostatin receptor type 1 (Homo sapiens, UniProt P30872)
Somatostatin receptor type 1, sequence (P30872 whole entry): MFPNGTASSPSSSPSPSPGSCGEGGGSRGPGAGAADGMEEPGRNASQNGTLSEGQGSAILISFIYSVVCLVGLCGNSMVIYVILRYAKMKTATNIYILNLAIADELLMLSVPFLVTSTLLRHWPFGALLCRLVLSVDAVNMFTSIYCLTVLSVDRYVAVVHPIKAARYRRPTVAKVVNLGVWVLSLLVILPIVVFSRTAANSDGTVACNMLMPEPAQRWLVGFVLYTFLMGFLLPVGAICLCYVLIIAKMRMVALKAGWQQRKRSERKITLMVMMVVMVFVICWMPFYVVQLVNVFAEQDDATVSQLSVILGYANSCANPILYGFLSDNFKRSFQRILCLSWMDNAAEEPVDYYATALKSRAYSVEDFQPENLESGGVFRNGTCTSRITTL

SMILES: CC(C)[C@@H]1NC(=O)[C@H](CCCCN)NC(=O)[C@@H](Cc2c[nH]c3ccccc23)NC(=O)[C@H](Cc2ccc(O)cc2)NC(=O)[C@@H](NC(=O)[C@H](N)Cc2ccc3ccccc3c2)CSSC[C@@H](C(=O)N[C@H](C(N)=O)[C@@H](C)O)NC1=O [3-(2-Naphtyl)-D-Ala-L-Cys(1)-L-Tyr-D-Trp-L-Lys-L-Val-L-Cys(1)-L-Thr-NH2]
- pKi [1]: 9.30
- pKi [4]: 7.20

SMILES: C[C@@H](O)[C@@H]1NC(=O)[C@H](CCCCN)NC(=O)[C@@H](Cc2c[nH]c3ccccc23)NC(=O)[C@H](Cc2c[nH]c3ccccc23)NC(=O)[C@H](Cc2ccccc2)NC(=O)CCCCCCNC(=O)[C@H](Cc2ccccc2)NC1=O [L-362855] (cyclo([Ahp]FW[dW]KTF))
- pKi [1]: 9.10
- pKi [2]: 10.00
- pKi [3]: 7.00
- pKi [4]: 8.20
- pKi [5]: 7.00

SMILES: CC(C)[C@@H]1NC(=O)[C@H](CCCCN)NC(=O)[C@@H](Cc2c[nH]c3ccccc23)NC(=O)[C@H](Cc2ccc(O)cc2)NC(=O)[C@@H](NC(=O)[C@H](N)Cc2ccccc2)CSSC[C@@H](C(=O)N[C@@H](Cc2c[nH]c3ccccc23)C(N)=O)NC1=O [CAS_71306] (H-[dF]CY[dW]KVCW-NH2; disulfide 2-7)
- pKi [1]: 10.15

SMILES: C[C@@H](O)[C@H](NC(=O)[C@H](Cc1ccccc1)NC(=O)[C@@H](NC(=O)[C@H](CCCCN)NC(=O)[C@@H](Cc1c[nH]c2ccccc12)NC(=O)[C@H](Cc1ccccc1)NC(=O)[C@H](Cc1ccccc1)NC(=O)[C@H](N)Cc1ccccc1)[C@@H](C)O)C(N)=O [CAS_133073-82-2] (H-[dF]FF[dW]KTFT-NH2)
- pKi [1]: 8.10
- pKi [2]: 8.80
- pKi [3]: 7.80
- pKi [4]: 8.70
- pKi [5]: 8.20

SMILES: C[C@@H](O)[C@@H]1NC(=O)[C@H](CCCCN)NC(=O)[C@@H](Cc2c[nH]c3ccccc23)NC(=O)[C@H](Cc2ccccc2)NC(=O)[C@@H]2CCCN2C(=O)[C@H](Cc2ccccc2)NC1=O (cyclo(PF[dW]KTF))
- pKi [1]: 9.20
- pKi [2]: 7.40
- pKi [3]: 7.00
- pKi [4]: 6.90
- pKi [5]: 6.20

SMILES: CC(C)[C@H](NC(=O)[C@H](CCCCN)NC(=O)[C@@H](Cc1c[nH]c2ccccc12)NC(=O)[C@H](Cc1ccc(O)cc1)NC(=O)[C@H](Cc1ccccc1)NC(=O)[C@H](N)Cc1ccccc1)C(=O)N[C@@H](Cc1ccccc1)C(=O)N[C@H](Cc1cccc2ccccc12)C(N)=O [BIM 23056] (H-[dF]FY[dW]KVF[d1Nal]-NH2)
- pKi [1]: 6.70
- pKi [2]: 7.90
- pKi [3]: 7.00
- pKi [4]: 7.00
- pKi [5]: 7.00

SMILES: C[C@@H](OCc1ccccc1)[C@@H]1NC(=O)[C@H](CCCCN)NC(=O)[C@@H](Cc2c[nH]c3ccccc23)NC(=O)[C@H](Cc2ccccc2)NC(=O)CCCCCCNC1=O [c[Aha-Phe-D-Trp-Lys-Thr(Bzl)]] (cyclo([Ahp]F[dW]KT(Bn)))
- pKi [1]: 5.60
- pKi [2]: 6.50
- pKi [3]: 5.50
- pKi [4]: 6.40
- pKi [5]: 6.40

Next, values leading:

- pKi [1]: 6.90
- pKi [2]: 7.90
- pKi [3]: 7.00
- pKi [4]: 7.00
- pKi [5]: 6.10
SMILES: CSCC[C@@H]1NC(=O)[C@@H](NC(=O)[C@H](CC(N)=O)NC(=O)[C@H](CC(C)C)NC(=O)[C@@H]2CCCN2C(=O)[C@H](CCCCN)NC(=O)[C@H](CO)NC(=O)[C@@H](NC(=O)[C@@H](NC(=O)[C@@H](NC(=O)[C@H](CC(N)=O)NC(=O)[C@@H](N)CC(=O)O)[C@@H](C)O)C(C)C)[C@@H](C)O)CSSC[C@@H](C(=O)O)NC(=O)[C@H](C)NC(=O)[C@H]([C@@H](C)O)NC(=O)[C@H](CCCN=C(N)N)NC(=O)[C@H](CO)NC(=O)[C@H](CCCCN)NC(=O)[C@H](Cc2c[nH]c3ccccc23)NC(=O)[C@H](Cc2ccccc2)NC(=O)[C@H](Cc2ccc(O)cc2)NC(=O)[C@H](CC(N)=O)NC1=O [SS-22] (H-DNTVTSKPLNCMNYFWKSRTAC-OH; disulfide 11-22)

- pKi [1]: 8.80
- pKi [2]: 8.30
- pKi [3]: 7.00
- pKi [4]: 7.00
- pKi [5]: 7.00
SMILES: CC(=O)N(CC(=O)NC1CSSCC(C(=O)NC(Cc2c[nH]c3ccccc23)C(N)=O)NC(=O)C(C(C)C)NC(=O)C(CCCCN)NC(=O)C(Cc2c[nH]c3ccccc23)NC(=O)C(Cc2ccc(O)cc2)NC1=O)Cc1ccccc1 (stereo not drawn) [RC 160II] (Ac-[Nphe]CYWKVCW-NH2; disulfide 2-7; configuration not given here)

- pKi [1]: 9.10
- pKi [2]: 8.60
- pKi [3]: 8.70
- pKi [4]: 9.41
- pKi [5]: 8.40
SMILES: C[C@@H](O)[C@@H]1NC(=O)[C@H](Cc2ccc(O)cc2)NC(=O)[C@H]([C@@H](C)O)NC(=O)[C@H](CCCCN)NC(=O)[C@H](Cc2c[nH]c3ccccc23)NC(=O)[C@H](Cc2ccccc2)NC(=O)[C@H](Cc2ccccc2)NC(=O)[C@H](CC(N)=O)NC(=O)[C@H](CCCCN)NC(=O)CCCCC[C@@H](C(=O)O)NC(=O)[C@H](CO)NC1=O [CGP-23996] (KNFFWKTYTS[Asu]-OH; lactam N-11)

- pKi [1]: 9.51
- pKi [2]: 9.72
- pKi [3]: 9.00
- pKi [4]: 9.30
- pKi [5]: 9.10
SMILES: CSCC[C@H](NC(=O)[C@H](C)NC(=O)[C@@H]1CCCN1C(=O)[C@H](CC(N)=O)NC(=O)[C@@H](N)CO)C(=O)N[C@@H](C)C(=O)N1CCC[C@H]1C(=O)N[C@@H](CCCN=C(N)N)C(=O)N[C@@H](CCC(=O)O)C(=O)N[C@@H](CCCN=C(N)N)C(=O)N[C@@H](CCCCN)C(=O)N[C@@H](C)C(=O)NCC(=O)N[C@H]1CSSC[C@@H](C(=O)O)NC(=O)[C@H](CO)NC(=O)[C@H]([C@@H](C)O)NC(=O)[C@H](Cc2ccccc2)NC(=O)[C@H]([C@@H](C)O)NC(=O)[C@H](CCCCN)NC(=O)[C@H](Cc2c[nH]c3ccccc23)NC(=O)[C@H](Cc2ccccc2)NC(=O)[C@H](Cc2ccccc2)NC(=O)[C@H](CC(N)=O)NC(=O)[C@H](CCCCN)NC1=O [SS-25] (H-SNPAMAPRERKAGCKNFFWKTFTSC-OH; disulfide 14-25)
